# Laboratory results published in the NIST ThermoML archive (doi:10.1016/j.jct.2012.09.015).
# Numbers after ± are expanded uncertainties.
# Conditions: 101.33 kPa, Liquid; for speed of sound: Sing-around technique in a fixed-path interferometer; for mass density: Vibrating tube method
Structure (SMILES),speed of sound (298.15 K) [m/s],mass density (298.15 K) [kg/m3],speed of sound (303.15 K) [m/s],mass density (303.15 K) [kg/m3],speed of sound (308.15 K) [m/s],mass density (308.15 K) [kg/m3],speed of sound (313.15 K) [m/s],mass density (313.15 K) [kg/m3],speed of sound (318.15 K) [m/s],mass density (318.15 K) [kg/m3],speed of sound (323.15 K) [m/s],mass density (323.15 K) [kg/m3]
C1CCCCC1 [cyclohexane],1254 ± 1,773.86 ± 0.14,1229 ± 1,769.12 ± 0.14,1205 ± 1,764.35 ± 0.14,1181 ± 1,759.56 ± 0.14,1157 ± 1,754.74 ± 0.14,1134 ± 1,749.88 ± 0.15
CCCCCCC [heptane],1131 ± 1,679.91 ± 0.18,1109 ± 1,675.63 ± 0.19,1088 ± 1,671.33 ± 0.19,1066 ± 1,667.01 ± 0.19,1045 ± 1,662.65 ± 0.19,1024 ± 1,658.26 ± 0.19
CCCCCC [hexane],1077 ± 2,655.21 ± 0.26,1054 ± 2,650.64 ± 0.26,1032 ± 2,646.03 ± 0.26,1010 ± 2,641.37 ± 0.26,988 ± 2,636.67 ± 0.26,965 ± 2,631.92 ± 0.26
